# Tests used:
# [1] = biological target: Hepatitis C virus serine protease, NS3/NS4A (Hepatitis C virus, UniProt A3EZI9+D2K2A8); test: Inhibition of Hepatitis C virus NS4A-NS3 protease by continuous assay; assay type: protein-complex assay, Hepacivirus hominis
# [2] = Oral bioavailability in dog; assay type: ADME, organism-based, Canis lupus familiaris; conditions: in vivo
# [3] = Oral bioavailability in rat; assay type: ADME, organism-based; conditions: in vivo
# [4] = Cmax in rat plasma at 20 mg/kg, po; assay type: ADME, organism-based; parameters: dose 20 mg/kg, route po
# [5] = biological target: Sterol O-acyltransferase 1 (Rattus norvegicus, UniProt O70536); test: Inhibition of ACAT in rat
# Sequence of Sterol O-acyltransferase 1 (O70536 whole entry): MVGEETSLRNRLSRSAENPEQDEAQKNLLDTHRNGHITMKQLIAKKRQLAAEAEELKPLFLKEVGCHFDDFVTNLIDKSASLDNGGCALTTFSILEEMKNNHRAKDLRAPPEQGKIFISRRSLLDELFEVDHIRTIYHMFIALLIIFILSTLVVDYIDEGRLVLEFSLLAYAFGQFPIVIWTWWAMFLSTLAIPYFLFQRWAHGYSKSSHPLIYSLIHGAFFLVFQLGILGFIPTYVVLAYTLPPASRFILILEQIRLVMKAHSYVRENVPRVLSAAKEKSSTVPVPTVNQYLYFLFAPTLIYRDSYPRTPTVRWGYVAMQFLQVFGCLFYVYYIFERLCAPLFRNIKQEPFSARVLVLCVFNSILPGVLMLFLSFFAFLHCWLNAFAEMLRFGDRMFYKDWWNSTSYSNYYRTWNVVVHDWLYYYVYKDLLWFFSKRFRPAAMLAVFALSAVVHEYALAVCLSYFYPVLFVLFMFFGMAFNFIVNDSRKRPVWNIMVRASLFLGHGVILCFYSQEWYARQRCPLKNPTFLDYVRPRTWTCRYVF
# [6] = Stability of the compound at pH 1 assessed as half-life; assay type: physicochemical; conditions: buffer
# [7] = Stability of the compound at pH 2 assessed as half-life; assay type: physicochemical; conditions: buffer
# Plasmodium falciparum [8] = test: Antiplasmodial activity against Plasmodium falciparum W2 assessed as inhibition of parasite growth; assay type: functional, organism-based
# [9] = Half-life in iv dosed rat plasma; assay type: ADME, organism-based
# [10] = Oral bioavailability in mouse; assay type: ADME, organism-based; conditions: in vivo
# [11] = Stability of the compound at pH 7.4 aqueous phosphate buffer assessed as half-life; assay type: physicochemical
# [12] = Stability of the compound in 0.01 N HCL at pH 2.0 assessed as half-life; assay type: physicochemical
# [13] = Half-life in po dosed rat; assay type: ADME, organism-based; conditions: in vivo
# MAP kinase p38 = MAP kinase p38 (Homo sapiens, UniProt O15264+Q15759+Q16539+P53778); test: Inhibition of p38-MAPK (unknown origin); assay type: protein assay
# Mus musculus [14] = test: Antiinflammatory activity in LPS-induced Balb/c mouse model assessed as reduction in TNF-alpha release administered orally for 30 mins followed by LPS-stimulation and measured after 90 mins by ELISA analysis; assay type: functional; conditions: 2 h, route po, time 120 min
# [15] = Drug concentration in rat plasma at 10 mg/kg, po measured after 90 mins; assay type: ADME, organism-based
# [16] = Antiplatelet activity in human platelet rich plasma assessed as platelet aggregation; assay type: functional, cell-free
# [17] = Inhibition of Leukotriene B4 production in human blood Polymorphonuclear neutrophil cells; assay type: functional, tissue-based
# [18] = biological target: T1, Neutrophil elastase (Homo sapiens) (UniProt P08246); test: Time-dependent inhibition of human leukocyte elastase assessed as observed binding constant
# T1 sequence (whole entry): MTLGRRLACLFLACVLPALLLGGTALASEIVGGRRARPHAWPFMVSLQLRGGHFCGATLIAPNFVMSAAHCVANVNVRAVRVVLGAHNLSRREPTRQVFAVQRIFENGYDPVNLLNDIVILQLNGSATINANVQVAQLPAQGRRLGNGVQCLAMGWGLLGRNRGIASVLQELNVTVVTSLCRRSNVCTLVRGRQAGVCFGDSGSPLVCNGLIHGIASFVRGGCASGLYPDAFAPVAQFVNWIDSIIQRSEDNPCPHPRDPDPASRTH
# [19] = Stability of the compound at pH 8 assessed as compound hydrolysis by measuring half-life; assay type: physicochemical; conditions: buffer
# [20] = Stability of the compound assessed as acid hydrolysis by measuring half-life; assay type: physicochemical
# [21] = Dissociation constant, pKa of the compound; assay type: physicochemical
# [22] = Inhibition of Calcium channel (unknown origin); parameters: species or system Homo sapiens
# Cavia porcellus = test: Antiinflammatory activity in po dosed substance P-induced guinea pig model of dermal inflammation; assay type: functional; conditions: read-out: ID50 (the source's name)
# Plasmodium falciparum [23] = test: Antiplasmodial activity against Plasmodium falciparum FcM29 assessed as inhibition of plasmodial growth; assay type: functional, organism-based
# Mus musculus [24] = species: Mus musculus; test: Analgesic activity in mouse assessed as protection against phenylbenzoquinone-induced writhing; assay type: functional
# Pasteurella multocida = test: Antibacterial activity against Pasteurella multocida 59A0067 assessed as inhibition of bacterial growth by microdilution method; assay type: functional
# Escherichia coli = test: Antibacterial activity against Escherichia coli 51A0150 assessed as inhibition of bacterial growth by microdilution method; assay type: functional
# Staphylococcus aureus = test: Antibacterial activity against Staphylococcus aureus 01A0785 assessed as inhibition of bacterial growth by microdilution method; assay type: functional
# Substance-P receptor = Substance-P receptor (Homo sapiens, UniProt P25103); test: Displacement of [125I]-labeled SP from human NK-1 receptor expressed in CHO cells at 1 uM relative to control; assay type: cell-based; conditions: filed as antagonist
# Sequence of Substance-P receptor (P25103 whole entry): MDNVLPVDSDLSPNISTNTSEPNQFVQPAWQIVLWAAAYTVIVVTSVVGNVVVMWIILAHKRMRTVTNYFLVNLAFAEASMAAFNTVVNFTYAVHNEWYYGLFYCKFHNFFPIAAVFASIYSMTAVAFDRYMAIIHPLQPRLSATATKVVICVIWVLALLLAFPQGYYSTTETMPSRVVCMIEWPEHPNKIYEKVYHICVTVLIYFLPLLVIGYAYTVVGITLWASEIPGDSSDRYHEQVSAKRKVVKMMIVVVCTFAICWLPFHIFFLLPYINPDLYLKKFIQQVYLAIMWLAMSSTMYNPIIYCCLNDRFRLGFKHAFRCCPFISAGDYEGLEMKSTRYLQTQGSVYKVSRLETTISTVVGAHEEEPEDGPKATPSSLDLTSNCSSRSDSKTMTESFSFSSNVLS
# [25] = Antiplasmodial activity against Plasmodium berghei NK 173 infected in ICR (CD-1) mouse assessed as inhibition of parasite growth administered intraperitoneally for four days; conditions: NK 173, 96 h
# [26] = biological target: Sodium-dependent dopamine transporter (Homo sapiens, UniProt Q01959); test: Inhibition of dopamine transporter (unknown origin)
# Sequence of Sodium-dependent dopamine transporter (Q01959 whole entry): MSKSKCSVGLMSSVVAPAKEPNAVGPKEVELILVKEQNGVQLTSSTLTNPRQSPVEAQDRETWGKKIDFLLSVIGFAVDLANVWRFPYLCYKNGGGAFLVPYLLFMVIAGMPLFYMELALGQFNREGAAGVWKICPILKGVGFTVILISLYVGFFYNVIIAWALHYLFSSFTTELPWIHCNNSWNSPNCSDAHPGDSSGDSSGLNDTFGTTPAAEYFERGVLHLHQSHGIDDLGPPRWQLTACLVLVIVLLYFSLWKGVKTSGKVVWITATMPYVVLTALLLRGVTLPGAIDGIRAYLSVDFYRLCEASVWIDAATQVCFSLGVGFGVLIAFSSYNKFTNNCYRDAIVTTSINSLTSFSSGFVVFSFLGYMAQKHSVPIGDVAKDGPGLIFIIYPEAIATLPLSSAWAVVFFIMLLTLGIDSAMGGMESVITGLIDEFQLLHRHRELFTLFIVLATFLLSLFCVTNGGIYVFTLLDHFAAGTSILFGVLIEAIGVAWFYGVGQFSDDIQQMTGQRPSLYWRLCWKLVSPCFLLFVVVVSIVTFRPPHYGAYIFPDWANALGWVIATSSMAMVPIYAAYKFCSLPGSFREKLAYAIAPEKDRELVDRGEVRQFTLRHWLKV
# [27] = biological target: Sodium-dependent serotonin transporter (Homo sapiens, UniProt P31645); test: Inhibition of SERT (unknown origin)
# Sequence of Sodium-dependent serotonin transporter (P31645 whole entry): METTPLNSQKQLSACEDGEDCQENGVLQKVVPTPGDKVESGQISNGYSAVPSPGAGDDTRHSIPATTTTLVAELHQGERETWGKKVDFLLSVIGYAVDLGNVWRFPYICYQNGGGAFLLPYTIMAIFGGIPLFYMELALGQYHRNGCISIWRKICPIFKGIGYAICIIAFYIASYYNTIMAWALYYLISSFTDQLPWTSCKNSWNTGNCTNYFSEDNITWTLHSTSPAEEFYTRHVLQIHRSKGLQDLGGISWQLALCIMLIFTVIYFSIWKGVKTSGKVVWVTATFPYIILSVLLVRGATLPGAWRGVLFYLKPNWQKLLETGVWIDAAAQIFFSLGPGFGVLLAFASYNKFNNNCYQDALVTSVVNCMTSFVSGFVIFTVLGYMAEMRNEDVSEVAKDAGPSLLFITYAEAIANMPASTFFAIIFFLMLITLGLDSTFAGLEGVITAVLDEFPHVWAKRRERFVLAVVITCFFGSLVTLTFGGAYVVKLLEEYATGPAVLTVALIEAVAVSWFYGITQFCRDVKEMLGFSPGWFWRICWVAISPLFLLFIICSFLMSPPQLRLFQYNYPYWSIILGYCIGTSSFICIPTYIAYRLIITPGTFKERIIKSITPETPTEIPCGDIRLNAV
# [28] = Oral bioavailability in human; assay type: ADME, organism-based; conditions: in vivo
# [29] = Oral bioavailability in monkey; assay type: ADME, organism-based, Macaca mulatta; conditions: rhesus monkey, in vivo
# Hepatitis C virus = test: Antiviral activity against Hepatitis C virus genotype 1a harboring NS5A Y93H mutant; assay type: functional, organism-based, Hepacivirus hominis
# Sequence of Hepatitis C virus serine protease, NS3/NS4A (D2K2A8 whole entry): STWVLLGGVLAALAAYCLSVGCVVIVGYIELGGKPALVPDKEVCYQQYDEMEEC
# Sequence of Hepatitis C virus serine protease, NS3/NS4A (A3EZI9 whole entry): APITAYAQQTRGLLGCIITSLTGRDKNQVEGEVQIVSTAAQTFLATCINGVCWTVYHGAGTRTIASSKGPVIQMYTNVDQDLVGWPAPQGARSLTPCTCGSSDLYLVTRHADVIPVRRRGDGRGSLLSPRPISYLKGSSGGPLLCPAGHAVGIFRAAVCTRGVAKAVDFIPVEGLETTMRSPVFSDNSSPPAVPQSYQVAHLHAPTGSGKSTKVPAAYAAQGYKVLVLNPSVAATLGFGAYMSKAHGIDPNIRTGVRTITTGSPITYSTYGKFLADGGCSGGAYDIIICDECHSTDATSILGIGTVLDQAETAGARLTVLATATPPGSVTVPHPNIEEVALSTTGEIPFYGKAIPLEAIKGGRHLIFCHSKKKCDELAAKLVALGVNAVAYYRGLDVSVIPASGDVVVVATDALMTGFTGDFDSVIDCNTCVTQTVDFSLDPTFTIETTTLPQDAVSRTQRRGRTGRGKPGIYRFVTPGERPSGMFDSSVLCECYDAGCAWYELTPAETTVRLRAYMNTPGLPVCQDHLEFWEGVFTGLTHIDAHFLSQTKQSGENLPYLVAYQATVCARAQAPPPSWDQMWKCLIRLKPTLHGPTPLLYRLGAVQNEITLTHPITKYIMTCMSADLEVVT
smiles,measurement,setting,value
CCC[C@H](NC(=O)[C@@H]1[C@H]2O[C@H]3CCCOc4cccc(c4)CC(=O)N[C@@H](C4CCCCC4)CN1C[C@@H]2O3)C(=O)C(=O)NCC(=O)N[C@H](C(=O)O)c1ccccc1,Ki,[1],38 nM
N#Cc1cc(-c2ccoc2)c2ccc(OCc3cccc(C4(O)CC5COC(C4)O5)n3)cc2c1 (stereo unspecified),bioavailability,[2],73%
same,bioavailability,[3],26%
same,Cmax,[4],5000 nM
Cc1cc(C)n(CCCC[C@H]2CO[C@@H](c3nc(-c4ccccc4)c(-c4ccccc4)[nH]3)OC2)n1,IC50,[5],75 nM
O=c1ccn([C@H]2C=C[C@@H](CO)O2)c(=O)[nH]1,half-life,[6],15 h
C[C@@H]1CC[C@H]2[C@@H](C)[C@](O)(C(F)(F)F)O[C@@H]3O[C@@]4(C)CC[C@@H]1[C@]32OO4,half-life,[7],760 h
same,IC50,Plasmodium falciparum [8],2.6 nM
same,half-life,[9],1.43 h
same,bioavailability,[10],28%
CCCCC[C@H](O)/C=C/[C@H]1O[C@@H]2O[C@@H]([C@H]2F)[C@@H]1C/C=C\CCCC(=O)O,half-life,[11],20 days
C[C@H]1[C@@H](O)O[C@@H]2O[C@@]3(C)CC[C@H]4[C@H](C)CC[C@@H]1[C@@]24OO3 [ARTENIMOL],half-life,[7],17 h
same,IC50,Plasmodium falciparum [8],0.45 nM
same,half-life,[9],0.383 h
same,bioavailability,[10],1.4%
same,half-life,[12],17 h
same,half-life,[13],0.5 h
C[C@]1(NC(=O)c2ccccc2)CO[C@H](c2nc(-c3ccncc3)c(-c3ccc(F)cc3)[nH]2)OC1,IC50,MAP kinase p38,44 nM
same,bioavailability,[3],64%
same,ED50,Mus musculus [14],10 mg/kg
c1ccc(-c2nc(C3OCCCO3)[nH]c2-c2ccccc2)cc1,IC50,[5],110 nM
Cc1cc(C)n(CCC[C@H]2CO[C@@H](c3nc(-c4ccccc4)c(-c4ccccc4)[nH]3)OC2)n1,concentration at 1.5 h,[15],1300 nM
C[S+]([O-])c1ccc(-c2nc(-c3ccncc3)c(-c3ccc(F)cc3)[nH]2)cc1 (stereo unspecified) [SB-203580],bioavailability,[3],10%
same,ED50,Mus musculus [14],10 mg/kg
CCCCC[C@H](O)/C=C/[C@H]1O[C@@H]2O[C@H]([C@@H]1C/C=C\CCCC(=O)O)C2(F)F,half-life,[11],322 days
same,EC50,[16],36 nM
N#Cc1cc(-c2ccoc2)c2ccc(OCc3cccc(C4(O)CCOCC4)n3)cc2c1,bioavailability,[3],26%
same,Cmax,[4],2000 nM
same,IC50,[17],0.6 nM
CC[C@@H]1C(=O)N(C(=O)NCc2ccccc2)[C@H]1Oc1ccc(C(=O)O)cc1,K,[18],2 10^3/M/s
same,half-life,[19],> 80 h
O=c1[nH]cnc2c1ncn2[C@@H]1O[C@H](CO)C[C@@H]1F,half-life,[20],> 1 min
CC[C@@H]1C(=O)N(C(C)=O)[C@H]1Oc1ccc(C(=O)O)cc1,K,[18],6.7 10^3/M/s
same,half-life,[19],8.6 h
O=c1[nH]nc(CN2CCC[C@H](OCc3cc(C(F)(F)F)cc(C(F)(F)F)c3)[C@@H]2c2ccccc2)[nH]1,pKa,[21],5.3
same,IC50,[22],13000 nM
same,ED50,Cavia porcellus,0.037 mg/kg
Nc1ncnc2c1ncn2[C@@H]1O[C@H](CO)C[C@@H]1F [LODENOSINE],half-life,[20],> 1 min
CC(C)(N)CNC(=O)CC1CCC2(CC1)OOC1(O2)C2CC3CC(C2)CC1C3 (stereo unspecified),bioavailability,[3],35%
same,half-life,[13],1 h
C[C@@H]1CC[C@H]2[C@@H](C)C(=O)O[C@@H]3O[C@@]4(C)CC[C@@H]1[C@]32OO4 [ARTEMISININ],IC50,Plasmodium falciparum [8],2.8 nM
same,half-life,[12],24 h
same,IC50,Plasmodium falciparum [23],7 nM
CCC[C@H](NC(=O)[C@@H]1[C@H]2O[C@H]3CCCOc4cccc(c4)CC(=O)N[C@@H](C4CCCCC4)CN1C[C@@H]2O3)C(=O)C(=O)NCC(=O)N[C@H](C(=O)OC(C)(C)C)c1ccccc1,Ki,[1],38 nM
CC(C)C1=C[C@H]2OC3(CCC(N[C@H]4CC[C@H](Nc5ccnc6cc(Cl)ccc56)CC4)CC3)OO[C@@]2(C)CC1 (stereo partly specified),IC50,Plasmodium falciparum [23],18 nM
c1ccc([C@@]23OC[C@@H](CCn4c2nc2ccccc24)O3)cc1,ED50,Mus musculus [24],100 mg/kg
N#Cc1cc(-c2ccoc2)c2ccc(OCc3cccc(C4(O)CC5COC(C4)O5)c3)cc2c1 (stereo unspecified),bioavailability,[3],10%
same,Cmax,[4],2500 nM
same,IC50,[17],3 nM
C[C@]1(NC(=O)N2CCOCC2)CO[C@H](c2nc(-c3ccncc3)c(-c3ccc(F)cc3)[nH]2)OC1,IC50,MAP kinase p38,50 nM
same,bioavailability,[3],50%
same,ED50,Mus musculus [14],< 10 mg/kg
CC[C@@H]1C[C@H](O)[C@@H](C)NC[C@H](C)C[C@@]2(C)OC3(CCN(Cc4ccccc4)CC3)O[C@@H]([C@H](C)[C@H]2O[C@@H]2O[C@H](C)C[C@H](N(C)C)[C@H]2O)[C@@H](C)C(=O)O1,MIC,Pasteurella multocida,0.03 µg/mL
same,MIC,Escherichia coli,0.2 µg/mL
same,MIC,Staphylococcus aureus,0.6 µg/mL
CC[C@@H]1C(=O)N(C(C)=O)[C@H]1OC(C)=O (racemic),K,[18],4 10^3/M/s
same,half-life,[19],2.4 h
CC1(C)COC2(CCC(N[C@H]3CC[C@H](Nc4ccnc5cc(Cl)ccc45)CC3)CC2)OO1 (stereo partly specified),IC50,Plasmodium falciparum [23],10 nM
Fc1ccc([C@@H]2NCCO[C@]23CC[C@@H](c2ccccc2C(F)(F)F)CO3)cc1,Activity,Substance-P receptor,47%
CO[C@@]1(C(F)(F)F)O[C@@H]2O[C@@]3(C)CC[C@H]4[C@H](C)CC[C@@H]([C@H]1C)[C@@]24OO3,half-life,[7],660 h
same,ED50,[25],3.4 µmol/kg
COC(=O)[C@H]1[C@@H](c2ccc(Cl)c(Cl)c2)C[C@@H]2CC[C@H]1N2C,IC50,[26],1.1 nM
same,IC50,[27],2 nM
COC(=O)N[C@H](C(=O)N1CCC[C@H]1c1nc(-c2ccc3c(c2)O[C@@H](c2ccccc2)n2c-3cc3cc(-c4c[nH]c([C@@H]5CCCN5C(=O)[C@@H](NC(=O)OC)C(C)C)n4)ccc32)c[nH]1)C(C)C [ELBASVIR],bioavailability,[28],32%
same,bioavailability,[2],35%
same,bioavailability,[3],9%
same,bioavailability,[29],17%
same,EC50,Hepatitis C virus,2.4 nM
O=c1[nH]nc(CN2CCO[C@H](OCc3cc(C(F)(F)F)cc(C(F)(F)F)c3)[C@@H]2c2ccccc2)[nH]1,pKa,[21],< 3
same,IC50,[22],12000 nM
same,ED50,Cavia porcellus,0.009 mg/kg
Cc1cn([C@H]2C=C[C@@H](CO)O2)c(=O)[nH]c1=O [STAVUDINE],half-life,[6],26 h
Nc1ccn([C@H]2C=C[C@@H](CO)O2)c(=O)n1,half-life,[6],0.2 h
Nc1ncnc2c1ncn2[C@@H]1O[C@H](CO)C[C@H]1F,half-life,[20],> 1 min
CC[C@@H]1C[C@H](O)[C@@H](C)NC[C@H](C)C[C@@]2(C)OC3(CCN(C(=O)c4ccco4)CC3)O[C@@H]([C@H](C)[C@H]2O[C@@H]2O[C@H](C)C[C@H](N(C)C)[C@H]2O)[C@@H](C)C(=O)O1,MIC,Pasteurella multocida,0.05 µg/mL
same,MIC,Escherichia coli,0.78 µg/mL
same,MIC,Staphylococcus aureus,0.78 µg/mL
c1ccc(-c2nc([C@H]3OC[C@@H](CCCCN4CCSCC4)CO3)[nH]c2-c2ccccc2)cc1,concentration at 1.5 h,[15],2200 nM
Fc1ccc([C@@H]2NCCO[C@@]23CC[C@H](c2ccccc2C(F)(F)F)CO3)cc1,Activity,Substance-P receptor,44%
COC(=O)[C@H]1[C@@H](c2ccc(Cl)c(Cl)c2)C[C@@H]2CC[C@H]1O2,IC50,[26],3.27 nM
same,IC50,[27],4.67 nM
